{"source": "paper PMC12066474", "about": "“Ex vivo quantification of intracellular pH in Drosophila Malpighian tubule reveals basolateral HCO3 ^−/oxalate exchange through a novel oxalate transporter “Neat”” (Frontiers in Physiology, 2025)", "target": "T1, Neat (CG5002) (Drosophila melanogaster, UniProt Q7K4I4)", "T1 construct": "coding region in pGEMHE, cRNA expressed in Xenopus laevis oocytes", "T1 sequence (Q7K4I4 1-595)": "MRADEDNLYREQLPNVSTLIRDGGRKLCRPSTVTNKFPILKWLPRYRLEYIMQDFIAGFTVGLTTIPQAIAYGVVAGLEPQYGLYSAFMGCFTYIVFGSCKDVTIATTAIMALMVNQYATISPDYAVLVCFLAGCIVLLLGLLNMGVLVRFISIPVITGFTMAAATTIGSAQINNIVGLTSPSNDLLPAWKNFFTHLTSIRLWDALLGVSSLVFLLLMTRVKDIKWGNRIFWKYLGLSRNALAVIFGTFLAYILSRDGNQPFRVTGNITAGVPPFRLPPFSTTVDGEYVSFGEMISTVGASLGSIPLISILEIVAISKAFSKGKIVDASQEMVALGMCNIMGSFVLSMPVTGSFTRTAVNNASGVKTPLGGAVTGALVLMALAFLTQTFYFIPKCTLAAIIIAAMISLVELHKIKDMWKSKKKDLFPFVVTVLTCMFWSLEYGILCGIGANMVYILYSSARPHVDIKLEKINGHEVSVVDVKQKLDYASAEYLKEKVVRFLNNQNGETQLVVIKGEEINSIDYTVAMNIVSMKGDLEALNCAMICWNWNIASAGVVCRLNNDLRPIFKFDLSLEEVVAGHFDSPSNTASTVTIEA", "format": "cell-based", "conditions": "5% CO2/33 mM HCO3−, pH 7.5"}
{"smiles": "O=C(O)O", "note": "[HCO3 ^−]", "values": [{"measurement": "intracellular pH microelectrode in Xenopus oocytes", "value": "Neat demonstrated electroneutral HCO3 ^− influx in the presence of HCO3 ^−/CO2 buffered saline"}]}
